Laboratory results from PMC11513892, “Discovery of a Series of Macrocycles as Potent Inhibitors of Leishmania Infantum” (Journal of Medicinal Chemistry, 2024).
Like-named read-outs stand apart in the source and are kept apart here.

How the values were obtained:
[1] = system: P. falciparum blood stage 3D7 strain; assay: Growth of P. falciparum blood stage 3D7 strain (phenotypic); assay type: cell-based, Plasmodium falciparum; conditions: Figure 2A; for EC50: Plasmodium falciparum, 3D7, mean (SD) from 2 to 14 measurements
Excerpt: (§1) We previously reported the synthesis of a series of macrocycles, including 1 (Figure 2A), designed to investigate how structural features influence molecular chameleonicity.[15],[21] Originating from the structural similarities between 1 and hymenocardine, we investigated 1 in screens for P. falciparum and four kinetoplastid parasites: T. b. brucei, T. b. rhodesiense, T. cruzi, and L. infantum. In the screens, we also included compounds 2 and 3 (Figure 2A), which were obtained from an intermediate late in the synthetic route to 1. Since very few validated protein targets relevant to clearance of parasites are known, phenotypic assays were used to investigate the antiparasitic activity for all five parasites. For malaria, the P. falciparum blood stage 3D7 strain was used to test the three compounds. For the two Trypanosoma brucei species, the reduction in trypomastigote growth in culture medium was determined after the addition of 1–3. For T. cruzi, the intracellular parasite growth in infected human fibroblasts (MRC-5 cell line) was assessed in the presence and absence of the three inhibitors. Similarly, the growth of L. infantum was assessed in infected primary mouse macrophages (PMMs) in the presence and absence of the inhibitors. […] The assays for T. cruzi and L. infantum are complex, i.e., they determine the degree of inhibition of parasitic replication in a mammalian cell line; this complexity may lead to a high variability for some compounds.
(§2) The growth of the P. falciparum blood stage 3D7 strain,[53] the two T. brucei species in axenic cultures,[54]T. cruzi in infected human fibroblasts (MRC-5 cell line),[55] and of L. infantum in infected primary mouse macrophages (PMMs)[56] was determined as previously reported in the presence and absence of inhibitors 1–12.

[2] = system: T. b. brucei; assay: Growth of T. b. brucei trypomastigotes in axenic culture; assay type: cell-based; conditions: Trypanosoma brucei
Excerpt: as §1, §2

[3] = system: T. b. rhodesiense; assay: Growth of T. b. rhodesiense trypomastigotes in axenic culture; assay type: cell-based, Trypanosoma brucei rhodesiense; conditions: for EC50: Trypanosoma brucei, RHODESIENSE / STIB900, CSV supplement, decimal comma, read-out: EC50 T.b. rhodesiense STIB 900; for activity as inhibitor of T. b. rhodesiense (in words): text on Table S1
Excerpt: as §1, §2

[4] = system: T. cruzi; assay: Intracellular growth of T. cruzi in infected human fibroblasts (MRC-5 cell line); assay type: cell-based; conditions: Trypanosoma cruzi
Excerpt: as §1, §2

[5] = system: L. infantum; assay: Growth of L. infantum in infected primary mouse macrophages (PMMs), phenotypic assay; assay type: cell-based, Leishmania infantum; conditions: for EC50: Leishmania infantum, Macrophage
Excerpt: as §1
(§3) The potency of macrocycles 1–12 to inhibit the growth of L. infantum was determined in a phenotypic assay in which the parasite was grown in primary peritoneal mouse macrophages (PMMs). To understand whether the SAR for inhibition of parasitic growth is impacted by low cell permeability, the permeability of compounds 1–12 was determined separately. Madin-Darby canine kidney (MDCK) cells transfected with the human MDR1 (multidrug resistance 1) gene (MDCK-MDR1 cells) were used to determine permeabilities in the apical to basolateral direction (Papp AB) as well as efflux ratios (ERs). […] Lipophilicity (Log D at pH 7.4), aqueous kinetic solubility and mouse liver microsomal metabolism were also determined for 1–12, and are discussed separately (cf. physiochemical properties and ADMET, below).
as §2

[6] = system: MRC-5 cells; assay: Host cell cytotoxicity in MRC-5 cells; assay type: cell-based, human; conditions: CSV supplement; decimal comma
[7] = system: primary mouse macrophages (PMMs); assay: Host cell cytotoxicity in primary mouse macrophages (PMM); assay type: cell-based; conditions: CSV supplement; decimal comma
[8] = system: MDR1; assay: in vitro; assay type: in vitro ADME, canine; conditions: dog; for Papp B→A: MDCK-MDR1, pH 7.4; for Papp A→B: MDCK-MDR1, pH 7.4, Papp AB
Procedure: as §3
(§4) The kinetic solubility in phosphate buffered saline at pH 7.4, chromatographic Log D at pH 7.4, cell permeability across a MDCK-MDR1 cell monolayer at pH 7.4, and the clearance in mouse liver microsomes of 1–12 was determined at TCG Lifesciences.

[9] = Kinetic solubility in phosphate buffered saline at pH 7.4; assay type: physicochemical
Procedure: as §4

[10] = Chromatographic Log D at pH 7.4; assay type: physicochemical; conditions: 1-octanol/PBS pH 7.4, determined by chromatography, mean of two measurements
Procedure: as §4

[11] = Clearance in mouse liver microsomes; assay type: in vitro ADME; conditions: for microsomal CLint: mouse, liver microsomes
Procedure: as §4

[12] = Clearance in human microsomes; assay type: in vitro ADME; conditions: CSV supplement; for microsomal CLint: human, microsomes, read-out: CLint in vitro Human Microsomes
Excerpt: Supplement jm4c01370_si_002.csv, table | column: CLint in vitro Human Microsomes µL/min/mg; t(1/2) min

[13] = CSV supplement, decimal comma, read-out: EC50 T.b. brucei Squib 427
[14] = MRC5, Table S1, mean (SD), 2 to 14 measurements, unit not given in Table S1, read-out: In vitro potency, T. cruzi
[15] = TULAHUEN, MRC5, read-out: EC50 T. cruzi Tulahuen C4 (LacZ)
[16] = CSV supplement, decimal comma, read-out: EC50 L. infantum MHOM/MA(BE)/67
[17] = Table 1, mean (standard deviation, number of measurements), read-out: EC50 (μM), inhibition of the growth of L. infantum
[18] = MDCK-MDR1, pH 7.4, ER, efflux ratio (BA/AB)
[19] = MDCK-MDR1, pH 7.4, MDCK MDR1 - pH 7.4 Efflux Ratio
[20] = phosphate buffered saline, pH 7.4, CSV supplement, read-out: Kinetic solubility
[21] = phosphate buffered saline, pH 7.4, phosphate buffered saline pH 7.4, assay range 2.5–200 μM, read-out: solubility (kinetic)
[22] = CSV supplement, read-out: CLint in vitro Mouse Microsomes
[23] = incubation with mouse liver microsomes, read-out: CLint

Row | SMILES | potency as inhibitor of P. falciparum (in words) [1] | EC50 [2, 13] [µM] | EC50 [3] [µM] | EC50 [4, 14] [µM] | EC50 [4, 15] [µM] | EC50 [5, 17] [µM] | MRC-5 cells Human Lung Fibroblast Cells (cytotoxicity) [6] | PMM Primary Mouse Macrophages (inf-LMPH) (cytotoxicity) [7] | Papp B→A [8] [×10⁻⁶ cm/s] | efflux ratio [8, 18] | efflux ratio [8, 19] | Papp A→B [8] [×10⁻⁶ cm/s] | solubility kinetic [9, 20] [µg/mL] | solubility kinetic [9, 21] [µM] | chromatographic logD [10] | t(1/2), Mouse Microsomes ([11]; CSV supplement) | microsomal CLint [11, 22] [µL/min/mg] | microsomal CLint [11, 23] [µL/min/mg] | t(1/2), Human Microsomes [12] | microsomal CLint [12] [µL/min/mg] | further results
1 | CC(C)(C)OC(=O)N[C@H]1Cc2ccc(cc2)Oc2ccc(cc2)C(=O)CNC(=O)[C@H](Cc2ccccc2)NC1=O [Compound 1] | low or no potency | 6.1 | 6 | 15 | 14.6 | 33 | >64 µM | 48,0 µM | 21.4 | 4.3 | 4.3 | 5 | 24 | 44 | 4 | <3 min | > 578 | > 580 | 3,5 min | 497 | EC50 [1]: 21 µM; EC50 ([4]; MRC5, Figure 2A, mean (SD) from 2 to 14 measurements, read-out: EC50 T. cruzi): 10 to 30 µM; EC50 [5, 16]: 32.8 µM
2 | CC(=O)Nc1cc2ccc1Oc1ccc(cc1)C[C@H](NC(=O)OC(C)(C)C)C(=O)N[C@@H](Cc1ccccc1)C(=O)NCC2=O [Compound 2] | low or no potency | 37 | 29 |  | 41 | 31 | 50,5 µM | >64 µM | 13.3 | 19 | 19.3 | 0.7 | 101 | > 100 | 3.2 | 6,0 min | 257 | 260 | 6,1 min | 285 | EC50 [1]: > 25 µM; solubility kinetic ([9]; phosphate buffered saline pH 7.4, assay range 2.5–200 μM, read-out: solubility (kinetic)): 169 µM
3 | COc1ccc(C[C@H](NC(=O)OC(C)(C)C)C(=O)N[C@@H](Cc2ccccc2)C(=O)NCC(=O)c2cccc(NC(=O)c3ccccn3)c2)cc1 [Compound 4, tert-Butyl ((S)-3-(4-Methoxyphenyl)-1-oxo-1-(((S)-1-oxo-1-((2-oxo-2-(3-(picolinamido)phenyl)ethyl)amino)-3-phenylpropan-2-yl)amino)propan-2-yl)carbamate] |  | 32.7 | 6.1 | 64 | > 64 | 38 | >64 µM | >64 µM | 2.4 |  |  |  | 4.9 | 7.3 | 4.7 | <3 min | > 578 | > 580 | <3 min | > 578 | EC50 ([2]; Table S1, mean (SD), 2 to 14 measurements, unit not given in Table S1, read-out: In vitro potency, T. b. brucei): 33 µM; activity in the L. infantum phenotypic screen (in words) ([5]; Table 1): inactive
4 | CC(C)(C)OC(=O)N[C@H]1CCc2ccc(cc2)Oc2ccc(cc2NC(=O)c2ccccn2)C(=O)CNC(=O)[C@H](Cc2ccccc2)NC1=O [Compound 5, tert-Butyl ((8S,11S)-8-Benzyl-4,7,10-trioxo-3^2-(picolinamido)-2-oxa-6,9-diaza-1,3(1,4)-dibenzenacyclotridecaphane-11-yl)carbamate] |  | 7.4 | 5.6 |  | 18 | 17 | >64 µM | >64 µM | 17.3 | 13 | 13.2 | 1.3 | 1.8 | 2.7 | 4.8 | <3 min | > 578 | > 580 | <3 min | > 578 | EC50 [5, 16]: 16.6 µM; loss in potency compared to 3, L. infantum ([5]; relative to compound 3): ~10 fold
5 | CC(C)(C)OC(=O)N[C@H]1Cc2ccc(cc2)Oc2ccc(cc2NC(=O)c2ccccn2)C(=O)CNC(=O)[C@H](c2ccccc2)NC1=O [Compound 9, tert-Butyl ((8S,11S)-4,7,10-Trioxo-8-phenyl-3^2-(picolinamido)-2-oxa-6,9-diaza-1,3(1,4)-dibenzenacyclododecaphane-11-yl)carbamate] |  | 7.7 | 1.9 | 19 | 18.9 | 6.6 | >64 µM | >64 µM | 4.2 | 9.9 | 9.9 | 0.4 | 10.3 | 16 | 4.4 | 8,4 min | 206 | 210 | 8,8 min | 197 | activity as inhibitor of T. b. rhodesiense (in words) [3]: moderately active
6 | CC(C)C[C@@H]1NC(=O)[C@@H](NC(=O)OC(C)(C)C)Cc2ccc(cc2)Oc2ccc(cc2NC(=O)c2ccccn2)C(=O)CNC1=O [Compound 10, tert-Butyl ((8S,11S)-8-Isobutyl-4,7,10-trioxo-3^2-(picolinamido)-2-oxa-6,9-diaza-1,3(1,4)-dibenzenacyclododecaphane-11-yl)carbamate] |  | 8.5 | 2.1 |  | 50 | 2.1 | >64 µM | >64 µM | 6.8 | 3.1 | 3.1 | 2.2 | 4.8 | 7.6 | 4.8 | <3 min | > 578 | > 580 | 4,8 min | 361 | activity as inhibitor of T. b. rhodesiense (in words) [3]: moderately active
